Measurements taken from patent publication US12486214B2, “Rosmarinic acid derivative, Rosmarinic acid-derived particles, composition containing same for treating inflammatory disease” (KOREA ADVANCED INSTITUTE OF SCIENCE AND TECHNOLOGY, priority 2020, dated 2025).
Read-outs that look alike come from different tables or passages of the source.

Experiments:
[1] = system: inflammatory bowel disease model mice; experiment: Effect of oral HA-RANPs (and HA, RA, 5-ASA) on inflammatory bowel disease model mice (3% DSS); type: in vivo; details: 5 times: HA-RANPs 100 mg/kg, HA 85 mg/kg, RA 15 mg/kg, 5-ASA 100 mg/kg
Procedure: To investigate the antiinflammatory therapeutic efficacy of HA-RANPs in inflammatory bowel disease model mice, the present inventors performed the following tests. By using the inflammatory bowel disease model in which 3% DSS and drinking water were administered to mice (C57BL/6, 6 weeks old, female, 7-day acclimatization) for 5 days, three dose concentrations (20, 50, and 100 mg/kg) of HA-RANPs were orally administered for 5 days (D+1 to D+5, one time/day) for a total of 5 times. The degree of disease progression and the antiinflammatory effect of HA-RANPs were examined through weight changes (measured daily) of all groups of mice and the extraction and tests of the large intestine on the last day.
In addition, the myeloperoxidase (MPO) activity and inflammatory cytokine expression were examined through ELISA assay. Specifically, the same portion of each mouse colon sample was cut, pre-treated, and minced, and then a predetermined amount thereof was centrifuged to obtain a supernatant, and thereafter, the supernatant was subjected to the following assay. The MPO activity is an index to evaluate the infiltration of neutrophils into the inflamed tissue. The measurement of MPO activity is disclosed in Grisham et al. (1990) or the like.
The change in extent of inflammation in the colon was investigated by histopathological examination, that is, examining the degrees of structural integrity loss, crypt destruction, and mucosal surface changes.
The present inventors evaluated the effect of the HA-RANPs of the present disclosure on inflammatory bowel disease model mice through the comparison with HA and RA. The inflammatory bowel disease model was induced by the same method as in the above-described experiment, wherein 100 mg/kg of HA-RANPs as a drug and the equal amounts of Free HA (85 mg/kg), RA (15 mg/kg), and 5-amino salicylic acid (5-ASA) (100 mg/kg) as positive drug controls were administered orally (a total of 5 times, one time/day, D+1 to D+5).

[2] = Particle size, zeta potential and morphology (DLS/PCS, TEM); type: physicochemical
Procedure: PEG-RA (20 mg) was dissolved in 4 mL of a 1:3 mixture (v/v) of chloroform:methanol and mixed for several minutes. The organic solvent was then removed by rotary vacuum evaporation and was further dried under a nitrogen flow for 30 minutes to yield a film layer. The film layer was suspended in 1 mL of PBS (137 mM NaCl, 2.7 mM KCl, 10 mM Na2HPO4, 2 mM KH2PO4, pH 7.4) and the resulting micelle suspension was sonicated in a bath sonicator (50 W, 40 kHz) for 10 minutes to yield uniform-sized RANPs. The micelle solution was maintained at 4° C., and directly used in the experiments below. The particle size of RANPs was analyzed by photon correlation spectroscopy (PCS) using a Nanosizer ZS90 (Malvern Instrument Ltd., Malvern, UK) equipped with 4.0 mW HeNe laser and an avalanche photodiode detector operating at 633 nm. Zeta potential was also measured at 25° C. in aqueous solutions (pH 7) by using the same equipment. The morphological characteristics of RANPs were examined using negative-staining transmission electron microscopy (TEM). Briefly, a drop of the diluted sample was placed on copper grids coated with a carbon film, stained with 0.5% w/v uranyl acetate solution, and dried at room temperature. The grids were imaged using a Tecnai F20 (FEI Co., Hillsboro, OR, USA) transmission electron microscope. […]
The hydrodynamic size and zeta potential of RANPs in phosphate buffer solution (pH 7.4), measured by dynamic light scattering (DLS), were 67.5±3.5 nm and −33.70 mV, respectively, indicating the exposure of the PEG layer on the surface of nanoparticles (FIG. 1C and Table 1).
The product was then analyzed through UV-Vis spectrometry using Beckman Coulter DU-800 UV-Vis spectrometer. The particle size of the HA-RA nanoparticles was obtained by measuring the hydrodynamic size of HA-RA nanoparticles in phosphate buffer solution (pH 7.4), measured by dynamic light scattering (DLS). […]
The LMWC-RA of the present disclosure was prepared into nanoparticles by the method shown in Example 8, and then the hydrodynamic size and zeta potential value thereof were measured.

[3] = Solubility in distilled water or DMSO; type: physicochemical
[4] = free RA, rats, intravenous 0.625 mg/kg; cited from earlier work
[5] = in vivo; cited from earlier work

Row | Conductivity [2] [mS/cm] | Mobility [2] [μm cm/Vs] | Zeta potential [2] [mV] | solubility ([3]; DMSO, organic solvent or mixture, read-out: solubility in DMSO) [mg/mL] | dissolution in distilled water ([3]; at 5 mg/ml) | solubility ([3]; distilled water, water, read-out: solubility in distilled water) [mg/mL] | SMILES | MPO activity and pro-inflammatory cytokine levels [1] | body weight loss and colon length shortening on day 10 [1] | colon histopathology (H&E stained biopsy) [1] | expression of tight junction-related genes ZO-1, claudin-1, and occludin in colon [1] | area under the curve (AUC) [4] [ng·h/mL] | circulation (or elimination) half-life (t1/2) [4] [min] | mean residence time (MRT) [4] [min] | time within which RA is usually excreted from the body [5] [min]
1 | – | – | – | – | – | – | Nc1ccc(O)c(C(=O)O)c1 [5-ASA, 5-amino salicylic acid] | somewhat relieved | significantly low | slightly relieved | improved | – | – | – | –
2 | 24.10 | −1.217 | −15.53 | ≤ 25 | only partially dissolved | ≤ 0.041 | O=C(/C=C/c1ccc(O)c(O)c1)O[C@H](Cc1ccc(O)c(O)c1)C(=O)O [Rosmarinic acid (RA), rosmarinic acid] | somewhat relieved | slight efficacy | slightly relieved | improved | 4090 | 42.9 | 50.1 | ≤ 30
